Experimental data published in patent US20070099828A1, “BIOMARKERS FOR THE EFFICACY OF CALCITONIN AND PARATHYROID HORMONE TREATMENT” (priority 2003, published 2007).
Values joined by “and” are separate entries in the source; they are usually repeats but may differ in a detail not shown here. Equal entries are not always repeated.

Columns and labels:
[1] = cynomolgus monkey, in vivo
Description: Animals. […] Solvent was used as vehicle for the control group.
The animals used in this analysis were cynomolgus monkeys (Macaca fascicularis), supplied by Centre de Recherches Primatologiques, Port Louis, Mauritius. Two animals were used per group and sex. At the beginning of the treatment period, the animals were at least 24 months old, with a body weight of approximately 3 kg. Animals were kept under standard conditions for animal welfare. Animals were examined daily for mortality, food consumption and clinical observations. Body weight was recorded once per week.

Haematology = assay type: in vivo, cynomolgus monkeys (Macaca fascicularis)
Description: (§1) Blood sampling. […] Blood samples were taken from a peripheral vein.

[2] = test system: liver, kidney, pituitary, muscle, bone, duodenum, spleen and trachea; design: species or system cynomolgus monkeys (Macaca fascicularis); conditions: cynomolgus monkey, in vivo
Description: Tissue sampling. Animals were killed by deep anaesthesia induced by intravenous injection of Pentothal®, followed by exsanguinations. All relevant tissues were sampled for histopathology and gene expression profiling. The following tissue samples were processed for analysis: liver, kidney, pituitary, muscle, bone, duodenum, spleen and trachea. Samples for histopathology were fixed in phosphate-buffered 10% formalin. Bone demineralization was performed with 10% formic acid. Tissue samples were embedded in Paraplast® and sectioned at 4 microns, for staining with haematoxylin and eosin. Samples for gene expression profiling were quickly frozen in liquid nitrogen immediately after excision, stored on dry ice and subsequently in a deep-freezer at approximately −80° C. until further use. All selected tissues for gene expression profiling were examined histopathologically.

Blood pressure = assay type: in vivo, cynomolgus monkeys (Macaca fascicularis); conditions: for Blood Pressure Difference: Week 2 vs Week-1; for Blood Pressure Week-1: before dosing
[3] = Hormone determinations in serum; assay type: in vivo, cynomolgus monkeys (Macaca fascicularis); conditions: males
Description: as §1

[4] = urine, females, day −8 (pre-dose)

CREAT (urine) (Urinary analysis; males, day 13): 4620 µmol/L and 4400 µmol/L
Ca2+ (urine) (Urinary analysis; males, day 13): 18.25 mmol/L and 23.40 mmol/L
Cl− (urine) (Urinary analysis; males, day 13): 55 mmol/L and 68 mmol/L
I.PHOS (urine) (Urinary analysis; males, day 13): 2.50 mmol/L and 3.00 mmol/L
K+ (urine) (Urinary analysis; males, day 13): 78 mmol/L and 76 mmol/L
Mg2+ (urine) (Urinary analysis; males, day 13): 7.05 mmol/L and 9.80 mmol/L
Na+ (urine) (Urinary analysis; males, day 13): 14 mmol/L and 15 mmol/L
VOLUME (urine) (Urinary analysis; males, day 13): 68 mL and 54 mL
I.PHOS (urine) (Urinary analysis; males, day −6 (before dosing)): 4.35 mmol/L and 5.33 mmol/L
LDH (urine) (Urinary analysis; males, day −6 (before dosing)): 9.0 IU/L and 13.0 IU/L
NAG (urine) (Urinary analysis; males, day −6 (before dosing)): 2.7 IU/l and 4.2 IU/l
VOLUME (urine) (Urinary analysis; males, day −6 (before dosing)): 62 mL and 37 mL
CREAT (Urinary analysis; urine, females, day 13): 4800 µmol/L and 4200 µmol/L
Ca2+ (Urinary analysis; urine, females, day 13): 17.55 mmol/L and 12.70 mmol/L
Cl− (Urinary analysis; urine, females, day 13): 63 mmol/L and 65 mmol/L
I.PHOS (Urinary analysis; urine, females, day 13): 5.1 mmol/L and 5.8 mmol/L
K+ (Urinary analysis; urine, females, day 13): 53 mmol/L and 57 mmol/L
Mg2+ (Urinary analysis; urine, females, day 13): 5.40 mmol/L and 4.85 mmol/L
NAG (Urinary analysis; urine, females, day 13): 2.8 IU/l and 2.7 IU/l
Na+ (Urinary analysis; urine, females, day 13): 40 mmol/L and 32 mmol/L
VOLUME (Urinary analysis; urine, females, day 13 of dosing): 67 mL and 49 mL
CREAT (Urinary analysis; urine, females, day −7 (pre-dose)): 6920 µmol/L and 13380 µmol/L
CREAT (Urinary analysis; [4]): 10780 µmol/L and 11260 µmol/L
Ca2+ (Urinary analysis; [4]): 3.00 mmol/L and 3.50 mmol/L
K+ (Urinary analysis; [4]): 104 mmol/L and 172 mmol/L
Mg2+ (Urinary analysis; [4]): 3.35 mmol/L and 3.80 mmol/L
Na+ (Urinary analysis; [4]): 98 mmol/L and 156 mmol/L
Food Consumption Avg., Both animals [1]: 72.9
L (Haematology; females, d 7): 4.61 G/L and 6.21 G/L
MCH (Haematology; females, d 7): 18.6 pg and 19.4 pg
MCV (Haematology; females, d 7): 64 fL and 68 fL
PCV (Haematology; females, d 7): 0.4 l/l and 0.44 l/l
PLAT (Haematology; females, d 7): 594 G/L and 356 G/L
RBC (Haematology; females, d 7): 6.2 T/l and 6.6 T/l
WBC (Haematology; females, d 7): 9.5 G/l and 17 G/l
monocyte count (Haematology; females, d 7): 0.63 G/l and 0.82 G/l
B (Haematology; females, d 13): 0.03 G/L and 0.05 G/L
L (Haematology; females, d 13): 5.18 G/L and 6.58 G/L
MCH (Haematology; females, d 13): 19.5 pg
MCV (Haematology; females, d 13): 64 fL and 65 fL
PCV (Haematology; females, d 13): 0.33 l/l and 0.37 l/l
PLAT (Haematology; females, d 13): 451 G/L and 229 G/L
RBC (Haematology; females, d 13): 5.2 T/l and 5.7 T/l
WBC (Haematology; females, d 13): 12 G/l and 13.3 G/l
monocyte count (Haematology; females, d 13): 0.69 G/l and 0.39 G/l
B (Haematology; females, d −8 (before dosing)): 0.02 G/L and 0.01 G/L
E (Haematology; females, d −8 (before dosing)): 0.03 G/L
L (Haematology; females, d −8 (before dosing)): 3.26 G/L and 4.79 G/L
MCH (Haematology; females, d −8 (before dosing)): 19.1 pg and 19.8 pg
MCV (Haematology; females, d −8 (before dosing)): 61 fL and 65 fL
PCV (Haematology; females, d −8 (before dosing)): 0.4 l/l and 0.45 l/l
PLAT (Haematology; females, d −8 (before dosing)): 549 G/L and 304 G/L
RBC (Haematology; females, d −8 (before dosing)): 6.5 T/l and 7 T/l
WBC (Haematology; females, d −8 (before dosing)): 7 G/l and 8.3 G/l
monocyte count (Haematology; females, d −8 (before dosing)): 0.25 G/l and 0.3 G/l
B (Haematology; males, d 7): 0.04 G/l
E (Haematology; males, d 7): 0.10 G/l and 0.09 G/l
HB (Haematology; males, d 7): 11.7 g/dL and 11.5 g/dL
L (Haematology; males, d 7): 6.79 G/l and 5.57 G/l
M (Haematology; males, d 7): 0.73 G/l and 0.45 G/l
MCH (Haematology; males, d 7): 19.9 pg and 19.2 pg
MCHC (Haematology; males, d 7): 30.3 g/dL and 31.3 g/dL
MCV (Haematology; males, d 7): 66 fL and 62 fL
PCV (Haematology; males, d 7): 0.39 l/l and 0.37 l/l
PLAT (Haematology; males, d 7): 396 G/l and 330 G/l
RBC (Haematology; males, d 7): 5.9 T/l and 6.0 T/l
WBC (Haematology; males, d 7): 11.8 G/l and 9.5 G/l
B (Haematology; males, d 13): 0.03 G/l
HB (Haematology; males, d 13): 11.2 g/dL and 10.3 g/dL
L (Haematology; males, d 13): 5.38 G/l and 4.92 G/l
M (Haematology; males, d 13): 0.57 G/l and 0.76 G/l
MCH (Haematology; males, d 13): 20.2 pg and 19.2 pg
MCHC (Haematology; males, d 13): 29.0 g/dL and 28.7 g/dL
MCV (Haematology; males, d 13): 70 fL and 67 fL
PCV (Haematology; males, d 13): 0.39 l/l and 0.36 l/l
PLAT (Haematology; males, d 13): 302 G/l and 389 G/l
RBC (Haematology; males, d 13): 5.6 T/l and 5.4 T/l
WBC (Haematology; males, d 13): 8.0 G/l and 8.8 G/l
HB (Haematology; males, d −6 (before dosing)): 12.6 g/dL and 13.6 g/dL
L (Haematology; males, d −6 (before dosing)): 4.00 G/l and 6.55 G/l
MCH (Haematology; males, d −6 (before dosing)): 20.2 pg and 19.7 pg
MCHC (Haematology; males, d −6 (before dosing)): 31.4 g/dL and 32.0 g/dL
MCV (Haematology; males, d −6 (before dosing)): 64 fL and 62 fL
PCV (Haematology; males, d −6 (before dosing)): 0.40 l/l and 0.43 l/l
PLAT (Haematology; males, d −6 (before dosing)): 351 G/l and 247 G/l
RBC (Haematology; males, d −6 (before dosing)): 6.3 T/l and 6.9 T/l
WBC (Haematology; males, d −6 (before dosing)): 7.7 G/l and 11.5 G/l
ACTH ([3]; day 7): 87 pg/mL and 78 pg/mL
ALDOST ([3]; day 7): 1058 pg/mL and 987 pg/mL
C-PEPTI ([3]; day 7): 1.70 ng/mL and 1.20 ng/mL
CORTISOL ([3]; day 7): 979 nmol/L and 1523 nmol/L
CT ([3]; day 7): 4.0 pg/mL and 2.5 pg/mL
GASTRIN ([3]; day 7): 83 pg/mL and 128 pg/mL
GLUCAG ([3]; day 7): 247 pg/mL and 218 pg/mL
INSULIN ([3]; day 7): 14.0 mU/l and 10.0 mU/l
IPH ([3]; day 7): 75 pg/mL and 62 pg/mL
S.MED ([3]; day 7): 268 ng/mL and 307 ng/mL
T3 ([3]; day 7): 2.35 nmol/L and 1.65 nmol/L
T4 ([3]; day 7): 64 nmol/L and 79 nmol/L
VD25-H ([3]; day 7): 50 nmol/L and 44 nmol/L
ACTH ([3]; day 13): 87 pg/mL and 73 pg/mL
ALDOST ([3]; day 13): 819 pg/mL and 977 pg/mL
C-PEPTI ([3]; day 13): 1.80 ng/mL and 2.30 ng/mL
CORTISOL ([3]; day 13): 1611 nmol/L and 1709 nmol/L
G.H. ([3]; day 13): 16.2 ng/mL and 15.7 ng/mL
GASTRIN ([3]; day 13): 88 pg/mL and 136 pg/mL
GLUCAG ([3]; day 13): 428 pg/mL and 503 pg/mL
INSULIN ([3]; day 13): 17.0 mU/l and 22.0 mU/l
IPH ([3]; day 13): 78 pg/mL and 71 pg/mL
PROLACT ([3]; day 13): 4.6 ng/mL and 6.6 ng/mL
S.MED ([3]; day 13): 332 ng/mL and 384 ng/mL
T3 ([3]; day 13): 2.51 nmol/L and 1.90 nmol/L
T4 ([3]; day 13): 47 nmol/L and 65 nmol/L
VD25-H ([3]; day 13): 49 nmol/L and 45 nmol/L
CORTISOL ([3]; day −6 (pre-dose)): 2316 nmol/L and 1578 nmol/L
CT ([3]; day −6 (pre-dose)): 6.7 pg/mL and 5.1 pg/mL
G.H. ([3]; day −6 (pre-dose)): 11.5 ng/mL and 14.6 ng/mL
GLUCAG ([3]; day −6 (pre-dose)): 905 pg/mL and 869 pg/mL
T3 ([3]; day −6 (pre-dose)): 1.06 nmol/L and 1.48 nmol/L
T4 ([3]; day −6 (pre-dose)): 53 nmol/L and 62 nmol/L
TESTO ([3]; day −6 (pre-dose)): 8.5 nmol/L and 9.5 nmol/L
VD25-H ([3]; day −6 (pre-dose)): 63 nmol/L and 62 nmol/L
ACTH ([3]; day −6 relative to start of dosing (pre-dose)): 98 pg/mL and 115 pg/mL
SMILES: CC(C)C[C@H](NC(=O)[C@H](CCCCN)NC(=O)CNC(=O)[C@H](CC(C)C)NC(=O)[C@@H](NC(=O)[C@@H]1CSSC[C@H](N)C(=O)N[C@@H](CO)C(=O)N[C@@H](CC(N)=O)C(=O)N[C@@H](CC(C)C)C(=O)N[C@@H](CO)C(=O)N[C@@H]([C@@H](C)O)C(=O)N1)C(C)C)C(=O)N[C@@H](CO)C(=O)N[C@@H](CCC(N)=O)C(=O)N[C@@H](CCC(=O)O)C(=O)N[C@@H](CC(C)C)C(=O)N[C@@H](Cc1c[nH]cn1)C(=O)N[C@@H](CCCCN)C(=O)N[C@@H](CC(C)C)C(=O)N[C@@H](CCC(N)=O)C(=O)N[C@H](C(=O)N[C@@H](Cc1ccc(O)cc1)C(=O)N1CCC[C@H]1C(=O)N[C@@H](CCCNC(=N)N)C(=O)N[C@H](C(=O)N[C@@H](CC(N)=O)C(=O)N[C@H](C(=O)NCC(=O)N[C@@H](CO)C(=O)NCC(=O)N[C@H](C(=O)N1CCC[C@H]1C(N)=O)[C@@H](C)O)[C@@H](C)O)[C@@H](C)O)[C@@H](C)O [Salmon Calcitonin]
inflammatory and regenerative changes in the kidneys [2]: slightly higher incidence
Blood Pressure Week 2 (Blood pressure; Female, first line per animal): 82 mmHg and 44 mmHg
Blood Pressure Difference (Blood pressure; Female, first line per animal): −16 mmHg and −48 mmHg
Blood Pressure Week-1 (Blood pressure; Female, first line per animal): 98 mmHg and 92 mmHg
Blood Pressure Week 2 (Blood pressure; Female, second line per animal): 25 mmHg and 30 mmHg
Blood Pressure Difference (Blood pressure; Female, second line per animal): −25 mmHg and 4 mmHg
Blood Pressure Week-1 (Blood pressure; Female, second line per animal): 50 mmHg and 26 mmHg
Blood Pressure Week 2 (Blood pressure; Male, first line per animal): 99 mmHg and 79 mmHg
Blood Pressure Difference (Blood pressure; Male, first line per animal): −36 mmHg and −23 mmHg
Blood Pressure Week-1 (Blood pressure; Male, first line per animal): 135 mmHg and 102 mmHg
Blood Pressure Week 2 (Blood pressure; Male, second line per animal): 40 mmHg and 35 mmHg
Blood Pressure Difference (Blood pressure; Male, second line per animal): −21 mmHg
Blood Pressure Week-1 (Blood pressure; Male, second line per animal): 61 mmHg and 56 mmHg
